Values quoted from earlier work as cited in patent publication US8703048B2, “Buffered swelling media for radiation sterilized hydrophilic coatings” (Coloplast A/S, priority 2008, dated 2014).

Conditions: in water; for pKa: single value given

pKa3 | Compound | pKa | pKa1 | pKa2
– | O=C(O)CCO [3-hydroxypropionic acid] | 3.73 | – | –
– | Nc1ccccc1C(=O)O [anthranilic acid] | – | 2.11 | 4.95
9.73 | NCCC(=O)N[C@@H](Cc1cnc[nH]1)C(=O)O [carnosine] | – | 2.73 | 6.87
– | N#CO [cyanic acid] | 3.92 | – | –
– | O=C(O)[C@H](O)[C@@H](O)[C@H](O)[C@H](O)CO [gluconic acid] | 3.56 | – | –
– | O=C(O)CCCC(=O)O [glutaric acid] | – | 4.31 | 5.41
– | O=C(O)CNC(=O)c1ccccc1 [hippuric acid] | 3.80 | – | –
– | F [hydrofluoric acid] | 3.45 | – | –
